Bridge positions count the residues as written; N and C are the ends. Square brackets hold non-standard residues; d marks the D form. Peptide text beside a SMILES is read from it. * marks the point of attachment. X1 = C=CCN1CC[C@]23c4c5ccc(O)c4O[C@H]2[C@H](N*)CC[C@@]3(O)[C@H]1C5
Columns and labels:
Format in all cases: cell-based
mouse KOR, Gαi2 = biological target: T1, mouse KOR, Gαi2 (Mus musculus, UniProt P33534); experiment: TRUPATH BRET G protein assay, Gαi2; conditions: TRUPATH
T1 construct: expressed in transfected cells; host or cells: HEK293T (ATCC, CRL-3216), transient

human KOR L309A = biological target: T2, human KOR L309A (Homo sapiens, UniProt P41145, L309A); conditions: HEK-293T, KOR L309A
T2 construct: FLAG; expressed in transfected cells; host or cells: HEK293T

human KOR Q115A = biological target: T3, human KOR Q115A (Homo sapiens, UniProt P41145, Q115A); experiment: BRET β-arrestin-2 biosensor assay
T3 construct: FLAG; expressed in transfected cells; host or cells: HEK293 / HEK293T, transient
T3 sequence (P41145 whole entry Q115A): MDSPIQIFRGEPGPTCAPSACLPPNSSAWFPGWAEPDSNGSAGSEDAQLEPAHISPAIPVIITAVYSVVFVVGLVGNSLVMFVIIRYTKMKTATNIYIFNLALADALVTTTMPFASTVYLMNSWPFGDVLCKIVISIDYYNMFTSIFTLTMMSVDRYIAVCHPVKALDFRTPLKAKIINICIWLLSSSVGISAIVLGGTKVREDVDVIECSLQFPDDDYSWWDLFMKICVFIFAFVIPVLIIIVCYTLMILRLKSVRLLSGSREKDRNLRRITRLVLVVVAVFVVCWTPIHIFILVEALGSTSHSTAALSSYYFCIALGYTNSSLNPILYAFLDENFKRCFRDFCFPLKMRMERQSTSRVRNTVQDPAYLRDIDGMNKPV

T2 sequence (P41145 whole entry L309A): as the sequence (P41145 whole entry Q115A) above, with A115Q, L309A counted along it
T1 sequence (P33534 whole entry): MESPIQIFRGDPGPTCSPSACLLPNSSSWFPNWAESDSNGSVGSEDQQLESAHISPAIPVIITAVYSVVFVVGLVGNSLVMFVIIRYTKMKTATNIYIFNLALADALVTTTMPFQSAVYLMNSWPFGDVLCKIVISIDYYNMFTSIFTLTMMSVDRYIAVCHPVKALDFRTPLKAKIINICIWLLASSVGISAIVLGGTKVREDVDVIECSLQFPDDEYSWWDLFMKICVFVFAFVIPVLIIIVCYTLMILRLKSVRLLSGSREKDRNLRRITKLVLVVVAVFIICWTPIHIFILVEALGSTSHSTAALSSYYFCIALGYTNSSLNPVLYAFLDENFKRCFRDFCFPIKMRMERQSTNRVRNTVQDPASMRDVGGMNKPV

C=CCN1CC[C@]23c4c5ccc(O)c4O[C@H]2[C@H](NC(=O)[C@@H](Cc2ccccc2)NC(=O)[C@@H](NC(=O)[C@@H]2CSCC(=O)N[C@@H](Cc4ccc(O)cc4)C(=O)N[C@@H](C)C(=O)N[C@H](Cc4ccc(O)cc4)C(=O)N[C@@H]([C@@H](C)O)C(=O)N[C@@H]([C@@H](C)O)C(=O)N2)[C@@H](C)O)CC[C@@]3(O)[C@H]1C5 [DNCP-β-NalA(1)] ({CH2CO}-YA[dY]TTCT[dF]-X1; thioether N-6)
Emax (mouse KOR, Gαi2): 62 ± 6%
Emax (human KOR L309A): 95.98 ± 0.44%
Emax (human KOR Q115A): 60 ± 1.71%

— publication PMC10698194 (Nature Communications, 2023)
